Results taken from PubChem BioAssay AID248 (DTP/NCI, 2004).
“And” between values parts separate entries of the source, which are not always exact repeats. Equal values may be shown once. Toxic doses and inconclusive results are not listed.

Tested on: L1210 leukemia ip in BDF1 mice, survival T/C
Experiment: NCI In Vivo Anticancer Drug Screen. Data for tumor model L1210 Leukemia (intraperitoneal) in B6D2F1 (BDF1) mice
Details: endpoint: mean survival time, higher = longer survival
Method in brief: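 In this screen, tumor-bearing mice given compound are compared to those given vehicle, and their survival values are reported as a treated-to-control quotient.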

[1] = dose: 100.0 mg/kg/injection, schedule: Q04DX002 (ip), vehicle: Klucel (hydroxypropylcellulose) (HPC)
[2] = dose: 200.0 mg/kg/injection, schedule: Q04DX002 (ip), vehicle: Klucel (hydroxypropylcellulose) (HPC)
[3] = dose: 400.0 mg/kg/injection, schedule: Q04DX002 (ip), vehicle: Klucel (hydroxypropylcellulose) (HPC)
[4] = dose: 100.0 mg/kg/injection, schedule: Q04DX003 (ip), vehicle: saline with Tween-80
[5] = dose: 200.0 mg/kg/injection, schedule: Q04DX003 (ip), vehicle: saline with Tween-80
[6] = dose: 400.0 mg/kg/injection, schedule: Q04DX002 (ip), vehicle: saline with Tween-80
[7] = dose: 400.0 mg/kg/injection, schedule: Q04DX003 (ip), vehicle: saline with Tween-80
[8] = dose: 100.0 mg/kg/injection, schedule: Q01DX001 (ip), vehicle: carboxymethylcellulose (CMC)
[9] = dose: 200.0 mg/kg/injection, schedule: Q01DX001 (ip), vehicle: carboxymethylcellulose (CMC)
[10] = dose: 400.0 mg/kg/injection, schedule: Q01DX001 (ip), vehicle: carboxymethylcellulose (CMC)
[11] = dose: 100.0 mg/kg/injection, schedule: Q04DX002 (ip), vehicle: saline with Tween-80
[12] = dose: 200.0 mg/kg/injection, schedule: Q04DX002 (ip), vehicle: saline with Tween-80
[13] = dose: 100.0 mg/kg/injection, schedule: Q01DX009 (ip), vehicle: Klucel (hydroxypropylcellulose) (HPC)
[14] = dose: 100.0 mg/kg/injection, schedule: Q04DX003 (ip), vehicle: Klucel (hydroxypropylcellulose) (HPC)
[15] = dose: 200.0 mg/kg/injection, schedule: Q01DX009 (ip), vehicle: Klucel (hydroxypropylcellulose) (HPC)
[16] = dose: 200.0 mg/kg/injection, schedule: Q04DX003 (ip), vehicle: Klucel (hydroxypropylcellulose) (HPC)
[17] = dose: 400.0 mg/kg/injection, schedule: Q01DX009 (ip), vehicle: Klucel (hydroxypropylcellulose) (HPC)
[18] = dose: 400.0 mg/kg/injection, schedule: Q04DX003 (ip), vehicle: Klucel (hydroxypropylcellulose) (HPC)
[19] = dose: 100.0 mg/kg/injection, schedule: Q01DX001 (ip), vehicle: saline
[20] = dose: 200.0 mg/kg/injection, schedule: Q01DX001 (ip), vehicle: saline
[21] = dose: 400.0 mg/kg/injection, schedule: Q01DX001 (ip), vehicle: saline
[22] = dose: 100.0 mg/kg/injection, schedule: Q01DX009 (ip), vehicle: saline with Tween-80
[23] = dose: 200.0 mg/kg/injection, schedule: Q01DX009 (ip), vehicle: saline with Tween-80
[24] = dose: 400.0 mg/kg/injection, schedule: Q01DX009 (ip), vehicle: saline with Tween-80

`Cn1cc(/C=C\C(=O)O)c2nccnc21` was tested, and the T/C (dose: 37.5 mg/kg/injection, schedule: Q01DX009 (ip), vehicle: water) was 95 % of control, the T/C (dose: 50.0 mg/kg/injection, schedule: Q01DX009 (ip), vehicle: water) was 100 % of control and the T/C (dose: 75.0 mg/kg/injection, schedule: Q01DX009 (ip), vehicle: water) was 105 % of control. The T/C (dose: 100.0 mg/kg/injection, schedule: Q01DX009 (ip), vehicle: water) was 89 % of control, the T/C (dose: 100.0 mg/kg/injection, schedule: Q04DX003 (ip), vehicle: water) was 108 % of control and the T/C (dose: 150.0 mg/kg/injection, schedule: Q01DX009 (ip), vehicle: water) was 89 % of control. The T/C (dose: 200.0 mg/kg/injection, schedule: Q01DX009 (ip), vehicle: water) was 91 % of control, the T/C (dose: 200.0 mg/kg/injection, schedule: Q04DX003 (ip), vehicle: water) was 106 % of control and the T/C (dose: 300.0 mg/kg/injection, schedule: Q01DX009 (ip), vehicle: water) was 91 % of control.

For `O=C1OC(c2cccc(Cl)c2)=N/C1=C\c1cccc([N+](=O)[O-])c1`, the T/C [1] was 103 % of control, the T/C [2] was 100 % of control and the T/C [3] was 103 % of control.

`CCOC(=O)C(C(C)=O)C(c1ccccc1)C(C(C)=O)C(=O)OCC` (configuration not stated) was tested, and the T/C (dose: 25.6 mg/kg/injection, schedule: Q04DX002 (ip), vehicle: saline with Tween-80) was 97 % of control, the T/C (dose: 64.0 mg/kg/injection, schedule: Q04DX002 (ip), vehicle: saline with Tween-80) was 104 % of control and the T/C [4] was 101 % of control. The T/C (dose: 160.0 mg/kg/injection, schedule: Q04DX002 (ip), vehicle: saline with Tween-80) was 112 % of control, the T/C [5] was 98 % of control and the T/C [6] was 104 % of control. For the same molecule, the T/C [7] was 93 % of control.

With `CCNP(=O)(OCC)OCC` the T/C (dose: 50.0 mg/kg/injection, schedule: Q01DX001 (ip), vehicle: carboxymethylcellulose (CMC)) was 94 % of control, the T/C [8] was 92 % of control and the T/C [9] was 94 % of control. The T/C [10] was 118 % of control.

`O=S(=O)(c1ccc(N=NN2CCOCC2)cc1)N(CCCl)CCCl` was tested, and the T/C [11] was 108 % of control, the T/C [12] was 115 % of control and the T/C [6] was 115 % of control.

In the case of `CC(C)OC(=O)C1(N)CCCC1`, the T/C (dose: 25.0 mg/kg/injection, schedule: Q01DX Z (ip), vehicle: carboxymethylcellulose (CMC)) is reported as 105 % of control, the T/C (dose: 30.0 mg/kg/injection, schedule: Q01DX Z (ip), vehicle: saline) is reported as 113 % of control and the T/C (dose: 40.0 mg/kg/injection, schedule: Q01DX Z (ip), vehicle: other) is reported as 119 % of control. For the same molecule, the T/C (dose: 45.0 mg/kg/injection, schedule: Q01DX Z (ip), vehicle: saline) was 118 % of control, the T/C (dose: 50.0 mg/kg/injection, schedule: Q01DX Z (ip), vehicle: carboxymethylcellulose (CMC)) was 122 % of control and the T/C (dose: 150.0 mg/kg/injection, schedule: Q01DX Z (ip), vehicle: saline) was 89 % of control. For the same molecule, the T/C (dose: 200.0 mg/kg/injection, schedule: Q01DX Z (ip), vehicle: carboxymethylcellulose (CMC)) was 88 % of control.

For `CCCCCCCCCCCCNC(=O)Nc1ccc(CC)cc1`, the T/C [13] was 87 % of control, the T/C [14] was 97 % of control and the T/C [15] was 94 % of control. The T/C [16] was 96 % of control, the T/C [17] was 93 % of control and the T/C [18] was 101 % of control.

`Nc1nccc2snnc12` was tested, and the T/C (dose: 100.0 mg/kg/injection, schedule: Q01DX001 (ip), vehicle: Klucel (hydroxypropylcellulose) (HPC)) was 91 % of control, the T/C [14] was 94 % of control and the T/C (dose: 200.0 mg/kg/injection, schedule: Q01DX001 (ip), vehicle: Klucel (hydroxypropylcellulose) (HPC)) was 89 % of control. The T/C [16] was 104 % of control, the T/C (dose: 400.0 mg/kg/injection, schedule: Q01DX001 (ip), vehicle: Klucel (hydroxypropylcellulose) (HPC)) was 97 % of control and the T/C [18] was 100 % of control.

With `CCCCSC(C)(SCCCC)SCCCC` the T/C [11] was 97 % of control, the T/C [12] was 101 % of control and the T/C [6] was 116 % of control.

With `OCCOCC(F)(F)F` the T/C [19] was 97 % of control, the T/C [20] was 100 % of control and the T/C [21] was 105 % of control. The T/C (dose: 400.0 mg/kg/injection, schedule: Q01DX015 (ip), vehicle: saline) was 96 % of control, the T/C (dose: 800.0 mg/kg/injection, schedule: Q01DX001 (ip), vehicle: saline) was 105 % of control and the T/C (dose: 800.0 mg/kg/injection, schedule: Q01DX015 (ip), vehicle: saline) was 101 % of control. The T/C (dose: 1600.0 mg/kg/injection, schedule: Q01DX001 (ip), vehicle: saline) was 108 % of control.

For `O=C(O)c1c(Cl)c(Cl)c(Cl)c(Cl)c1Cl`, the T/C [22] was 103 % of control, the T/C [23] was 106 % of control and the T/C [24] was 112 % of control.

With `CS(=O)(=O)c1ccccc1` the T/C [1] was 102 % of control, the T/C [2] was 91 % of control and the T/C [3] was 102 % of control.

For `CSc1ccc(NC(=O)NS(=O)(=O)c2ccc(C)cc2)cc1`, the T/C [22] was 88 % of control and 91 % of control, the T/C [11] was 96 % of control and the T/C [4] was 95 % of control. The T/C [23] was 97 % of control and 91 % of control, the T/C [12] was 89 % of control and the T/C [5] was 89 % of control. For the same molecule, the T/C [24] was 87 % of control, the T/C [6] was 100 % of control and 86 % of control and the T/C [7] was 90 % of control.

With `CC1C(C)(C)C1(F)Cl` (configuration not stated) the T/C [8] was 95 % of control, the T/C [9] was 103 % of control and the T/C [10] was 108 % of control.

With `COc1ccc(C[n+]2cccc(NC(=O)COc3ccc(Cl)c(Cl)c3)c2)cc1` the T/C [14] was 97 % of control.

For `O=C(Nc1ccc(S(=O)(=O)Nc2ccc(N=Nc3ccccc3)cc2)cc1)C(SC1=NC=NC2=NC=NC21)(SC1=NC=NC2=NC=NC21)SC1=NC=NC2=NC=NC21` (configuration not stated), the T/C (dose: 75.0 mg/kg/injection, schedule: Q04DX003 (ip), vehicle: saline) was 104 % of control, the T/C (dose: 150.0 mg/kg/injection, schedule: Q04DX003 (ip), vehicle: saline) was 109 % of control and the T/C (dose: 300.0 mg/kg/injection, schedule: Q04DX003 (ip), vehicle: saline) was 100 % of control.

With `c1cc(C2OCCO2)cs1` the T/C (dose: 50.0 mg/kg/injection, schedule: Q01DX009 (ip), vehicle: saline with Tween-80) was 86 % of control and the T/C [22] was 86 % of control.

For `CN(C)c1ccc(/C=N/NC(=O)C(O)C(O)C(O)C(O)CO)cc1` (configuration not stated), the T/C [13] was 97 % of control, the T/C [15] was 96 % of control and the T/C [17] was 102 % of control.

In the case of `COC(=O)c1ccc2c3c(ccc(C(=O)OC)c13)C=C2`, the T/C [19] is reported as 102 % of control, the T/C [20] is reported as 94 % of control and the T/C [21] is reported as 95 % of control.

`CC1CCCCC1(C)C1C=CC(=O)OC1(C)C` (configuration not stated) was tested, and the T/C (dose: 25.0 mg/kg/injection, schedule: Q04DX003 (ip), vehicle: saline) was 97 % of control, the T/C (dose: 50.0 mg/kg/injection, schedule: Q04DX003 (ip), vehicle: saline) was 97 % of control and the T/C (dose: 100.0 mg/kg/injection, schedule: Q04DX003 (ip), vehicle: saline) was 97 % of control.

`CC[n+]1cccc(NC(=O)c2ccc(NC(=O)c3ccc(C(=O)Nc4ccc(C(=O)Nc5ccc[n+](CC)c5)cc4)cc3)cc2)c1` was tested, and the T/C (dose: 0.25 mg/kg/injection, schedule: Q01DX009 (ip), vehicle: saline) was 110 % of control, the T/C (dose: 4.0 mg/kg/injection, schedule: Q01DX001 (ip), vehicle: saline) was 115 % of control and 117 % of control and the T/C (dose: 4.0 mg/kg/injection, schedule: Q01DX009 (ip), vehicle: saline) was 157 % of control and 160 % of control. The T/C (dose: 4.4 mg/kg/injection, schedule: Q01DX Z (ip), vehicle: carboxymethylcellulose (CMC)) was 120 % of control, the T/C (dose: 6.7 mg/kg/injection, schedule: Q01DX Z (ip), vehicle: carboxymethylcellulose (CMC)) was 92 % of control and the T/C (dose: 8.0 mg/kg/injection, schedule: Q01DX009 (ip), vehicle: saline) was 228 % of control. For the same molecule, the T/C (dose: 16.0 mg/kg/injection, schedule: Q01DX009 (ip), vehicle: saline) was 121 % of control and 124 % of control, the T/C (dose: 32.0 mg/kg/injection, schedule: Q01DX001 (ip), vehicle: saline) was 189 % of control and the T/C (dose: 64.0 mg/kg/injection, schedule: Q01DX001 (ip), vehicle: saline) was 229 % of control.
